Results as given in publication PMC2854715, “Oxpholipin 11D: An Anti-Inflammatory Peptide That Binds Cholesterol and Oxidized Phospholipids” (PLoS ONE, 2010).
Entries after “also recorded” stand apart in the source; their conditions may differ. Non-standard residues stand in square brackets, D forms with d. Residues, ends and D or L forms follow the SMILES beside them. dDip = N[C@@H](C(=O)O)C(c1ccccc1)c1ccccc1

Key:
[1] = SPR binding to arachidonic acid
Protocol: (§1) Binding experiments were done by surface plasmon resonance (SPR) on a BIAcore 3000 system (BiaCore AB, Piscataway, NJ). Peptide ligands and apoA-I were immobilized on a BIAcore CM5 sensor chip activated per the manufacturer's protocol with N-hydroxysuccinimide and 1-ethyl-3-(3-[…]) carbodiimide. After achieving adequate immobilization, the activated sensor surface was blocked with ethanolamine.
(§2) Lipid stock solutions were prepared in absolute ethanol and then diluted into a standard BIAcore buffer (HBS-EP), containing 10 mM HEPES, pH 7.4, 150 mM NaCl, 3 mM EDTA and 0.005% (v/v) surfactant P20. Lipid concentrations used in the binding studies were selected to give binding responses of 30-500 resonance units. Lipid stock solutions were prepared at 1 mg/ml in ethanol. […] Ethanol-free HBS-EP buffer was used during the dissociation phase. Lipid binding was measured by observing the change in the SPR angle as 150 µl of lipid analyte (various concentrations) in HBS-EP buffer flowed over the biosensor for 3 min at 50 µl/min. Biosensors were washed with 25 or 50% ethanol to regenerate them between binding studies. SPR data were corrected for background binding to the matrix of the chip (“blank” channel) and analyzed with BIAevaluation 4.1 software (Biacore, Piscataway, NJ).

[2] = SPR binding to 25-hydroxycholesterol; details: peptide immobilized on CM5 chip, sterol in HBS-EP pH 7.4, mean ± SEM
Protocol: as §1, §2

[3] = SPR binding to 15(S)-HETE
Protocol: as §1, §2

[4] = SPR binding to 24(S)-hydroxycholesterol
Protocol: as §1, §2

[5] = SPR binding to 5(S)-HPETE
Protocol: as §1, §2

[6] = SPR binding to 22(S)-hydroxycholesterol
Protocol: as §1, §2

[7] = SPR binding to 13(S)-HPODE
Protocol: as §1, §2

[8] = SPR binding to 4β-hydroxycholesterol; details: peptide immobilized on CM5 chip, sterol in HBS-EP pH 7.4, mean ± SEM
Protocol: as §1, §2

[9] = SPR binding to 15(S)-HPETE
Protocol: as §1, §2

SPR binding to POVPC = test: SPR binding to POVPC
Protocol: as §1, §2

SPR binding to 9(S)-HODE = test: SPR binding to 9(S)-HODE
Protocol: as §1, §2

SPR binding to PEIPC = test: SPR binding to PEIPC
Protocol: as §1, §2

[10] = SPR binding to 12(S)-HPETE
Protocol: as §1, §2

[11] = SPR binding to 13(S)-HODE
Protocol: as §1, §2

[12] = SPR binding to palmitic acid
Protocol: as §1, §2

[13] = SPR binding to 12(S)-HETE
Protocol: as §1, §2

Bovine albumin = target: T1, Bovine albumin (Bos taurus, UniProt P02769); test: SPR binding to bovine albumin (control); details: peptide immobilized on CM5 chip, analyte in HBS-EP pH 7.4, mean ± SEM
T1 construct: purchased Sigma-Aldrich
Protocol: as §1, §2

[14] = SPR binding to 20(S)-hydroxycholesterol
Protocol: as §1, §2

[15] = SPR binding to linoleic acid
Protocol: as §1, §2

SPR binding to PGPC = test: SPR binding to PGPC
Protocol: as §1, §2

[16] = SPR binding to cholesterol; details: peptide immobilized on CM5 chip, sterol in HBS-EP pH 7.4, mean ± SEM
Protocol: as §1, §2

SPR binding to KOdiA-PC = test: SPR binding to KOdiA-PC
Protocol: as §1, §2

apoE deficient mice = test: In vivo activity in apoE deficient mice: HDL inflammatory index; details: 1 mg/kg subcutaneously, fasting female apoE deficient mice, HDL isolated 6 h after dose, normalized to LDL; Figure 3
Protocol: As previously described, [64], HAEC cells were treated with native LDL (250 µg/ml) in the absence or presence of HDL or tested peptides for 8 h. After these cultures were washed, the medium was replaced by fresh Medium 199 and the cultures were incubated for an additional 8 h. This culture medium was collected and assayed for monocyte chemotactic activity using chambers purchased from Neuroprobe (Cabin John, MD). After monocytes were added to the upper compartment, the chamber was incubated for 60 min at 37°C and subsequently disassembled. The membrane was rinsed, air dried, fixed with 1% glutaraldehyde, stained with 0.1% crystal violet dye, and 12 standardized high power fields were examined microscopically. The number of migrated monocytes was expressed as the mean ±SD of monocytes counted. Values obtained in the absence of HDL were normalized to a value of 1.0. Normalized values >1.0 after HDL addition were considered to be pro-inflammatory, and values <1.0 as being anti-inflammatory.
ApoE null mice on a C57BL/6J background, originally from Jackson Laboratories (Bar Harbor, ME), were maintained in a breeding colony in the Department of Laboratory and Animal Medicine at the David Geffen School of Medicine at UCLA. The mice were maintained on a chow diet (Ralston Purina, St. Louis, MO).
Six hours later, and with continued fasting, blood was removed from the retro-orbital sinus under mild isoflurane anesthesia, and anticoagulated with heparin (2.5 U/ml). Plasma was obtained and fractionated by FPLC. HDL-containing fractions were tested in HAEC cultures for their ability to inhibit LDL-induced monocyte chemotactic activity. All procedures conformed to regulations of the UCLA Animal Research Committee. An HDL inflammatory index was determined using the standard monocyte chemotaxis assay. Indices >1 were interpreted as pro-inflammatory, and indices <1 as anti-inflammatory.

[17] = KD(D-4F)/KD(OxP-11D), >1: OxP-11D binds with higher affinity
[18] = SPR, peptide immobilized on CM5 chip, lipid in HBS-EP pH 7.4, mean ± SEM
[19] = SPR, peptide immobilized on CM5 chip, sterol in HBS-EP pH 7.4, mean ± SEM
[20] = based on the KD ratios of Table 3

T1 sequence (P02769 25-607): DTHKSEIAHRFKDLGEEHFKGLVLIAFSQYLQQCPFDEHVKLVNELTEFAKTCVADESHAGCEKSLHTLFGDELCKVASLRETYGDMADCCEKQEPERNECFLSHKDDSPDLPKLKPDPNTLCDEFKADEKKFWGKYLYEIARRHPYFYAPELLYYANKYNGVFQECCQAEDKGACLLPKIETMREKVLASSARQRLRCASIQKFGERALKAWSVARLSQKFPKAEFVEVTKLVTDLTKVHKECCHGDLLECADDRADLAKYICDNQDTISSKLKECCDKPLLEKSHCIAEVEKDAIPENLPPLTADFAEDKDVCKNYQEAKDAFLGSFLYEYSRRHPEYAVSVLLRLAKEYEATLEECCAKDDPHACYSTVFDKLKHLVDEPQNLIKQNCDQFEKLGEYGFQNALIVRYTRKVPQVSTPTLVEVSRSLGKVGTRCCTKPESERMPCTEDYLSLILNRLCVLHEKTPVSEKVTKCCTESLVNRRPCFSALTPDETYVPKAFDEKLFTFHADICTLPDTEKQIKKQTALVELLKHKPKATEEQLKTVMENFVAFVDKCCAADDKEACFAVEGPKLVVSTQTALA

Structure (SMILES): CC(C)C[C@@H](NC(=O)CNC(=O)[C@H](NC(=O)[C@H](NC(=O)[C@@H](CCC(=O)O)NC(=O)[C@H](N)CCCNC(=N)N)C(c1ccccc1)c1ccccc1)[C@H](C)O)C(=O)N[C@H](C)C(=O)N[C@H](Cc1c[nH]c2ccccc12)C(=O)N[C@H](CCC(=O)O)C(=O)N[C@H](Cc1c[nH]c2ccccc12)C(=O)N[C@H](Cc1c[nH]c2ccccc12)C(=O)N[C@H](CCCNC(=N)N)C(=O)N[C@@H](C(=O)N[C@@H](C(N)=O)C(C)C)[C@H](C)O [OxP-11D] (H-[dR][dE][dDip][dT]G[dL][dA][dW][dE][dW][dW][dR][dT][dV]-NH2; N-terminus assumed)
- D-4F/OxP-11D KD Ratio, arachidonic acid [1, 17]: 0.012
- Kd [1, 18]: 970 nM
- KD ± SEM, 25-hydroxycholesterol [2]: BND
- D-4F/OxP-11D KD Ratio, 15(S)-HETE [3, 17]: 0.236
- Kd [3, 18]: 93 nM
- D-4F/OxP-11D KD Ratio, 24(S)-hydroxycholesterol [4, 17]: 17.917
- Kd [4, 19]: 240 nM
- D-4F/OxP-11D KD Ratio, 5(S)-HPETE [5, 17]: 1.059
- Kd ([5]; SPR binding isotherm, Figure 5D, biosensor presented 4686 RU of OxP-11D): 16.9 ± 4.8 nM
- Affinity for 5(S)-HPETE relative to affinity for arachidonic acid [5, 20]: approximately 57 fold
- D-4F/OxP-11D KD Ratio, 22(S)-hydroxycholesterol [6, 17]: 33.333
- Kd [6, 19]: 450 nM
- D-4F/OxP-11D KD Ratio, 13(S)-HPODE [7, 17]: 0.677
- Kd [7, 18]: 31 nM
- KD ± SEM, 4β-hydroxycholesterol [8]: BND
- D-4F/OxP-11D KD Ratio, 15(S)-HPETE [9, 17]: 1.133
- Kd [9, 18]: 45 nM
- D-4F/OxP-11D KD Ratio, POVPC (SPR binding to POVPC; [17]): 0.008
- Kd (SPR binding to POVPC; [18]): 300 nM
- D-4F/OxP-11D KD Ratio, 9(S)-HODE (SPR binding to 9(S)-HODE; [17]): 0.714
- Kd (SPR binding to 9(S)-HODE; [18]): 21 nM
- D-4F/OxP-11D KD Ratio, PEIPC (SPR binding to PEIPC; [17]): 0.005
- Kd (SPR binding to PEIPC; SPR binding isotherm, Figure 5B, biosensor presented 4686 RU of OxP-11D): 12.4 ± 4.4 nM
- D-4F/OxP-11D KD Ratio, 12(S)-HPETE [10, 17]: 5.000
- Kd ([10]; SPR binding isotherm, Figure 5C, biosensor presented 4686 RU of OxP-11D): 34.4 ± 10.1 nM
- Affinity for 12(S)-HPETE relative to affinity for arachidonic acid [10, 20]: approximately 28.5 fold
- D-4F/OxP-11D KD Ratio, 13(S)-HODE [11, 17]: 2.895
- Kd [11, 18]: 3.8 nM
- D-4F/OxP-11D KD Ratio, palmitic acid [12, 17]: 2.030
- Kd [12, 18]: 330 nM
- D-4F/OxP-11D KD Ratio, 12(S)-HETE [13, 17]: 0.375
- Kd [13, 18]: 48 nM
- Kd (Bovine albumin): 690 nM
- D-4F/OxP-11D KD Ratio, 20(S)-hydroxycholesterol [14, 17]: 7.647
- Kd [14, 19]: 510 nM
- D-4F/OxP-11D KD Ratio, linoleic acid [15, 17]: 0.025
- Kd [15, 18]: 600 nM
- D-4F/OxP-11D KD Ratio, PGPC (SPR binding to PGPC; [17]): 0.002
- Kd (SPR binding to PGPC; [18]): 3200 nM
- Kd [16]: 360 nM
- D-4F/OxP-11D KD Ratio, KOdiA-PC (SPR binding to KOdiA-PC; [17]): 0.003
- Kd (SPR binding to KOdiA-PC; [18]): 190 nM
- HDL Inflammatory Index in vivo (apoE deficient mice): activity rivaled D-4F; also recorded: equally effective
